These results are taken from patent publication EP4635969A1, “NOVEL GLUCOCORTICOID, METHOD FOR PREPARING SAME, AND USE THEREOF” (Tianjin Pharmaceutical Biotechnology Co., Ltd., priority 2022, dated 2024).

In series [1] the target is T1, mineralocorticoid receptor (MR) (Homo sapiens, UniProt P08235).
T1 sequence (P08235 726-984): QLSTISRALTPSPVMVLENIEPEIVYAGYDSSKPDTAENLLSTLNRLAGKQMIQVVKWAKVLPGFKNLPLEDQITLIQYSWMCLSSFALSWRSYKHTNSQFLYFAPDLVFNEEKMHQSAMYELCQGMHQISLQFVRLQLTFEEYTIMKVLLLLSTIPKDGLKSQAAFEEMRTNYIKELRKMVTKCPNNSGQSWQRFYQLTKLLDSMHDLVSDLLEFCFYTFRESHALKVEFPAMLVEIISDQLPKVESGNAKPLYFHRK
The experiment in a line: Assay for agonist activity on mineralocorticoid receptor (luciferase reporter, HEK293 cells transfected with pBIND-MR plasmid). It is filed as cell-based. As to conditions: for Target selectivity MR/GR: ratio of EC50 values; for target selectivity: MR/GR and PR/GR, same experimental conditions. Summed up: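 HEK293 cells transiently transfected with pBIND-MR or pBIND-PR, seeded in phenol red-free DMEM with 5% charcoal-stripped serum. Compounds tested as 12-point 4-fold dilutions from 50 µM in duplicate, 0.1% DMSO blank. Luciferase luminescence read, EC50 by nonlinear fit.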
On the technique in general: Reporter assays use an easily measured gene product as a stand-in for the process of interest.

The nature of series [2]: Determination of stability in plasma in vitro, human plasma (LC-MS/MS). The class given is in vitro ADME. The settings on record: same experimental conditions (human and mouse plasma). How it is done:
Pharmacological Example 3: Determination of Stability in Plasma in Vitro
The stock solution was diluted with acetonitrile to obtain a working solution at a concentration of 100 µ M. The solution should be freshly prepared prior to use and maintained at room temperature during application.
990 µ L of human and mouse plasma (N = 2) were separately pipetted and pre-incubated at 37 °C for 5 min. Then, 10 µ L of the test compound working solution was added and vortexed thoroughly (the final concentration of the test compound was 1 µ M). Immediately, 50 µ L of the plasma sample was added to 150 µ L of ice-cold precipitation agent containing the internal standard and vortexed thoroughly as the 0-time sample. The remaining plasma sample was continuously incubated at 37 °C, and 50 µ L of the plasma sample was aspirated and added to 150 µ L of ice-cold precipitation agent containing the internal standard at preset sampling time points, followed by thorough vortexing. The collected samples were stored in a freezer at -60 to -90 °C until analysis.
The concentration of the test compound was determined by LC-MS/MS, and its degradation was monitored. (semi-quantitative determination was conducted by comparing the peak area of the analyte to that of the internal standard).

The target in series [3] is T2, glucocorticoid receptor (GR) (Homo sapiens, UniProt P04150).
T2 sequence (P04150 521-777): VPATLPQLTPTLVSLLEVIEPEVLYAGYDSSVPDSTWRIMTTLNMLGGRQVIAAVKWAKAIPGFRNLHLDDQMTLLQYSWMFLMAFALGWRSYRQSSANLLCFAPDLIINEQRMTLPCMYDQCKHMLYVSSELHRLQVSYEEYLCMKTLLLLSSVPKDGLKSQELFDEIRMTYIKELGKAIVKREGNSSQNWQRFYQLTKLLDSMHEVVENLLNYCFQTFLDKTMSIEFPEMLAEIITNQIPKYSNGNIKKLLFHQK
The experiment in a line: Assay for agonist activity on glucocorticoid receptor (luciferase reporter, HEK293 cells transfected with pBIND-GR plasmid). It is filed as cell-based. In short, it runs like this:
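Readout is luciferase luminescence, with EC50 derived by nonlinear fitting. Compounds ran at 10 concentrations (4-fold steps, top 10 µM, duplicate wells) on pBIND-GR-transfected HEK293 cells in phenol red-free DMEM plus 5% charcoal-stripped serum; 0.1% DMSO served as blank.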

A short description of series [4]: Stability in animal lung tissue homogenate, skin tissue homogenate and aqueous humor. It is filed as in vitro ADME.
The mark [5] stands for this setting: GR agonist EC50 (nM), HEK293 cells transfected with pBIND-GR, luciferase signal.
[6] abbreviates: Nuclear receptor enzyme activity (nM) GR, EC50 of agonist activity, HEK293 reporter cells.

Molecules are shown by their SMILES.

For orientation: EC50 means the concentration at which the effect is half-maximal. A higher EC50 goes with weaker potency. `C[C@]12C=CC(=O)C=C1[C@@H](F)C[C@H]1[C@@H]3C[C@H]4OC(c5ccc(CSC6CCOC6=O)cc5)O[C@@]4(C(=O)SCC#N)[C@@]3(C)C[C@H](O)[C@@]12F` (stereo partly drawn) [Compound 35, S-(Cyanomethyl) (2S,6aS,6bR,7S,8aS,8bS,11aR,12aS,12bS)-2,6b-difluoro-7-hydroxy-6a,8a-dimethyl-4-oxo-10-(4-( ((2-oxotetrahydrofuran-3-yl)thio)methyl)phenyl)-1,2,4,6a,6b,7,8,8a,11a,12,12a,12b-dodecahydro-8bH-naphtho[2',1':4,5]indeno[1,2-d][1,3]dioxole-8b-carbothioate]: the EC50 in series [1] is more than 50000 nM; in series [3] (setting [5]), 0.21 nM; in series [3] (setting [6]) it was 0.21 nM. For the same compound, the “Target selectivity MR/GR” value in series [1] was > 2.4×10^5. The plasma instability result in series [2] is recorded as “exhibited the characteristic of plasma instability”. Further, the “stability in animal lung tissue homogenate, skin tissue homogenate, and aqueous humor” value (shortened to “stability … and aqueous humor”) in series [4] is given as “relatively stable”.
On to `C[C@]12C=CC(=O)C=C1[C@@H](F)C[C@H]1[C@@H]3C[C@H]4OC(c5ccc(CSC6CCOC6=O)cc5)O[C@@]4(C(=O)OCF)[C@@]3(C)C[C@H](O)[C@@]12F` (stereo partly drawn) [Compound 36, Fluoromethyl (2S,6aS,6bR,7S,8aS,8bS,11aR,12aS,12bS)-2,6b-difluoro-7-hydroxy-6a,8a-dimethyl-4-oxo-10-(4-( ((2-oxotetrahydrofuran-3-yl)thio)methyl)phenyl)-1,2,4,6a,6b,7,8,8a,11a,12,12a,12b-dodecahydro-8bH-naphtho[2',1':4,5]indeno[1,2-d][1,3]dioxole-8b-carboxylate], for which the values for the EC50 in series [1], in series [3] (setting [5]) and in series [3] (setting [6]) were more than 50000 nM, 0.12 nM and 0.12 nM, respectively. In addition, the “Target selectivity MR/GR” value in series [1] is recorded as > 4.2×10^5. Moreover, in series [2], the plasma instability result is given as “exhibited the characteristic of plasma instability”. Also, the “stability … and aqueous humor” value in series [4] was “relatively stable”.
In the case of `C[C@]12C=CC(=O)C=C1[C@@H](F)C[C@H]1[C@@H]3C[C@H]4OC(c5ccc(CSC6CCOC6=O)cc5)O[C@@]4(C(=O)OCC#N)[C@@]3(C)C[C@H](O)[C@@]12F` (stereo partly drawn) [Compound 37, Cyanomethyl (2S,6aS,6bR,7S,8aS,8bS,11aR,12aS,12bS)-2,6b-difluoro-7-hydroxy-6a,8a-dimethyl-4-oxo-10-(4-( ((2-oxotetrahydrofuran-3-yl)thio)methyl)phenyl)-1,2,4,6a,6b,7,8,8a,11a,12,12a,12b-dodecahydro-8bH-naphtho[2',1':4,5]indeno[1,2-d][1,3]dioxole-8b-carboxylate], in series [1], the target selectivity result is “target selectivity comparable to that of compound 23”. Moreover, in series [2], the plasma instability result is recorded as “exhibited the characteristic of plasma instability”. In series [3] (setting [5]), the EC50 stood at 0.78 nM. Moreover, the “stability … and aqueous humor” value in series [4] was “relatively stable”.
As for `C[C@]12C=CC(=O)C=C1[C@@H](F)C[C@H]1[C@@H]3C[C@H]4OC(c5ccc(CSC6CCOC6=O)nc5)O[C@@]4(C(=O)CO)[C@@]3(C)C[C@H](O)[C@@]12F` (stereo partly drawn) [Compound 46, (25,6aS,6bR,78,8a8,8bS,11aR,12a8,12b8S)-2,6b-Difluoro-7-hydroxy-8b-(2-hydroxyacetyl)-6a,8a-dimethyl-10-(6-(((2-oxotetrahydrofuran-3-yl)thio)methyl)pyridin-3-yl)-1,2,6a,6b,7,8,8a,8b,11a,12, 12a,12b-dodecahydro-4H-naphtho[2',1':4,5]indeno[1,2-d][1,3]dioxol-4-one], the target selectivity entry in series [1] is “target selectivity comparable to that of compound 23”. The plasma instability result in series [2] is listed as “exhibited the characteristic of plasma instability”. The compound also returned a half-maximal effective concentration (EC50) in series [3] (setting [5]) of 0.23 nM. The “stability … and aqueous humor” value in series [4] was “relatively stable”.
